According to patent US20040044032A1, “Farnesyl protein transfer inhibitors for the treatment of inflammatory bowel disease” (priority 2003, published 2004):
Read-outs that look alike come from different tables or passages of the source.

Tests used:
[1] = system: DSS-induced colitis in mice; assay: Prevention of DSS-induced colitis in mice, repeat study with lower PO doses in 0.1 N HCl; type: in vivo; details: for weight DAY 0: Day 0 (baseline); for % Inh. Colonic Shortening / % of Normal Length Shortening / DAI mean ± SEM / DAINWT mean ± SEM / Mean Colon Length Cm ± SEM: 5% DSS days 0-7
Excerpt: (§1) All mice were weighed daily and observed for signs of gross toxicity and behavioural changes, consistency of stool and presence of gross blood during the study. On Day 7, all animals were euthanized by CO2 inhalation and necropsied. Following euthanasia, a stool sample was obtained from the colon of each animal and tested for occult blood (Quik-Cult, Laboratory Diagnostics Co., Morganville, N.J.). The colons were then removed and the length from the colo-cecal junction to the end of the distal rectum was measured. A segment of colon was collected from each animal and preserved in 10% formalin.
(§2) For each group, the disease activity index (DAI) was determined by evaluating changes in weight, Hemoccult positivity or gross bleeding and stool consistency using the following system.
(§3) Data was analyzed using analysis of variance (single factor). Statistically methods included the Mann-Whitney test, ANOVA and Turkey-Kramer Multiple Comparisons test.
(§4) Statistical significance between test and control groups was established at a probability of p<0.05.
In view of the above results the experiment was repeated with lower doses of compound 75. The above procedure was followed with the following groups
Individual doses were calculated based on daily body weights. Prior to administration, 50 mg of Compound 75 was diluted with 10 milliliters of 0.1N HCl (50 mg/kg for Group 5). The resulting solution was then further diluted twice, with 5 ml increments and used for the 25 (Group 4) and 12.5 (Group 3) mg/kg dose levels. The 0.1 N HCl was used for Groups 1 and 2 and constituted the vehicle control. Groups 2 through 5 were given a 5% w/w solution of dextran sulfate sodium (DSS) in distilled water substituted for their normal water supply (approximately 10 ml:mouse/day) from Days 0 through 7. Each group of animals received the appropriate amount of the test substance, as described above, by intubation using a stainless steel ball-tipped gavage needle attached to an appropriate syringe.

[2] = system: DSS-induced colitis in mice; type: in vivo; details: for Mean Weight (±SEM) DAY 0: Day 0 (baseline); for Mean Colon Length Cm ± SEM: necropsy Day 7; for deaths: 10 mice/group
Excerpt: The purpose of this study was to identify, characterize and document the preventative actions of compound 75 above, namely (+)-6-[amino(4-chlorophenyl) (1-methyl-1H-imidazol-5-yl)methyl]-4-(3-chlorophenyl)-1-methyl-2(1H)-quinolinone, a compound of formulae (I), in an experimental model of inflammatory bowel disease in mice.
A group of female Swiss-Webster mice was received from Ace Animals, Inc., Boyertown, Pa. The animals were grouped housed (5 mice/cage) in plastic cages with water absorbent bedding. […] The animals were fed Purina Rodent Chow #5012 and filtered tap water was supplied ad libitum by automatic watering system (during acclimation).
Following an acclimation period of 9 days, 40 healthy mice were selected for this study. The test animals were distributed (10 mice/group) into each one of the 4 test groups described below. There were no statistical significant differences between the mean group body weights.
Individual doses were calculated based on daily body weights. Prior to administration, Compound 75 was mixed with the vehicle (Beta cyclodextrin (40%) in 0.1 N HCL). This mixture was further diluted with 0.1 N HCL. The resulting mixture was then used to prepare the dilutions for groups 3 and 4. A 20% solution of Beta cyclodextrin in 0.1 N HCL was used for Groups 1 and 2 and constituted the vehicle control. Groups 2 through 4 were given a 5% w/w solution of dextran sulfate sodium (DSS) in distilled water substituted for their normal water supply (approximately 10 ml/mouse/day) from Days 0 through 6. Each group of animals received the appropriate amount of the test substance, as described above, by intubation using a stainless steel ball-tipped gavage needle attached to an appropriate syringe.
as §1, §2, §3, §4

[3] = 25 mg/kg PO bid days 0-6, 5% DSS
[4] = 50 mg/kg PO bid days 0-6, 5% DSS

Compound: Cn1cncc1C(N)(c1ccc(Cl)cc1)c1ccc2c(c1)c(-c1cccc(Cl)c1)cc(=O)n2C (single isomer, unassigned; (+)) [Compound 75, (+)-6-[amino(4-chlorophenyl)(1-methyl-1H-imidazol-5-yl)methyl]-4-(3-chlorophenyl)-1-methyl-2(1H)-quinolinone]
- weight DAY 0 ([1]; 12.5 mg/kg PO + DSS): 23.6 ± 0.3
- % change (weight) DAY 5 ([1]; 12.5 mg/kg PO + DSS): +1.3 ± 1.0%
- weight DAY 5 ([1]; 12.5 mg/kg PO + DSS): 23.9 ± 0.4
- % change (weight) DAY 6 ([1]; 12.5 mg/kg PO + DSS): 0.0 ± 1.0%
- weight DAY 6 ([1]; 12.5 mg/kg PO + DSS): 23.6 ± 0.4
- % change (weight) DAY 7 ([1]; 12.5 mg/kg PO + DSS): +1.3 ± 1.0%
- weight DAY 7 ([1]; 12.5 mg/kg PO + DSS): 23.9 ± 0.4
- % Inh. Colonic Shortening ([1]; 12.5 mg/kg PO daily): 65%
- % of Normal Length Shortening ([1]; 12.5 mg/kg PO daily): 89.6%
- DAI mean ± SEM ([1]; 12.5 mg/kg PO daily): 1.57 ± 0.17
- DAINWT mean ± SEM ([1]; 12.5 mg/kg PO daily): 2.25 ± 0.25
- Mean Colon Length Cm ± SEM ([1]; 12.5 mg/kg PO daily): 10.0 ± 0.1 Cm
- weight DAY 0 ([1]; 25 mg/kg PO + DSS): 24.2 ± 0.4
- weight DAY 5 ([1]; 25 mg/kg PO + DSS): 24.7 ± 0.6
- % change (weight) DAY 6 ([1]; 25 mg/kg PO + DSS): −1.2 ± 1.0%
- weight DAY 6 ([1]; 25 mg/kg PO + DSS): 23.9 ± 0.5
- % change (weight) DAY 7 ([1]; 25 mg/kg PO + DSS): +2.9 ± 1.0%
- weight DAY 7 ([1]; 25 mg/kg PO + DSS): 24.9 ± 0.5
- % Inh. Colonic Shortening ([1]; 25 mg/kg PO): 58%
- % of Normal Length Shortening ([1]; 25 mg/kg PO): 88.7%
- DAI mean ± SEM ([1]; 25 mg/kg PO): 1.53 ± 0.17
- DAINWT mean ± SEM ([1]; 25 mg/kg PO): 2.30 ± 0.25
- Mean Colon Length Cm ± SEM ([1]; 25 mg/kg PO): 9.9 ± 0.3 Cm
- weight DAY 0 ([1]; 50 mg/kg PO + DSS): 23.9 ± 0.3
- % change (weight) DAY 5 ([1]; 50 mg/kg PO + DSS): −0.7 ± 1.0%
- weight DAY 5 ([1]; 50 mg/kg PO + DSS): 23.9 ± 0.3
- % change (weight) DAY 6 ([1]; 50 mg/kg PO + DSS): −1.6 ± 1.0%
- weight DAY 6 ([1]; 50 mg/kg PO + DSS): 23.5 ± 0.3
- % change (weight) DAY 7 ([1]; 50 mg/kg PO + DSS): −0.3 ± 2.0%
- weight DAY 7 ([1]; 50 mg/kg PO + DSS): 23.8 ± 0.3
- % Inh. Colonic Shortening ([1]; 50 mg/kg PO): 52%
- % of Normal Length Shortening ([1]; 50 mg/kg PO): 87.0%
- DAI mean ± SEM ([1]; 50 mg/kg PO): 1.70 ± 0.18
- DAINWT mean ± SEM ([1]; 50 mg/kg PO): 2.30 ± 0.24
- Mean Colon Length Cm ± SEM ([1]; 50 mg/kg PO): 9.7 ± 0.2 Cm
- deaths during the duration of the experiment ([1]; 12.5, 25, 50 mg/kg PO): No deaths
- dose of maximal effectiveness on prevention of colonic shortening ([1]; PO daily, lowest dose tested): 12.5 mg/kg
- protection based on DAI and DAINWT ([1]; all doses (12.5, 25, 50 mg/kg PO)): statistically significant protection
- Mean Weight (±SEM) DAY 0 ([2]; 25 mg/kg PO bid + DSS): 25.1 ± 0.5 grams
- % weight change (±SEM) DAY 5 ([2]; 25 mg/kg PO bid + DSS): −8.3 ± 1.5%
- Mean Weight (±SEM) DAY 5 ([2]; 25 mg/kg PO bid + DSS): 23.0 ± 0.5 grams
- % weight change (±SEM) DAY 6 ([2]; 25 mg/kg PO bid + DSS): −8.7 ± 2.7%
- Mean Weight (±SEM) DAY 6 ([2]; 25 mg/kg PO bid + DSS): 22.9 ± 0.7 grams
- % weight change (±SEM) DAY 7 ([2]; 25 mg/kg PO bid + DSS): −9.6 ± 3.5%
- Mean Weight (±SEM) DAY 7 ([2]; 25 mg/kg PO bid + DSS): 22.7 ± 0.9 grams
- % of Normal Length Shortening [2, 3]: 82.0%
- Blood in Feces (%) [2, 3]: 0%
- DAI mean ± SEM [2, 3]: 1.70 ± 0.26
- DAINWT Mean ± SEM (DAI without body weight parameter) [2, 3]: 1.50 ± 0.22
- Mean Colon Length Cm ± SEM [2, 3]: 9.7 ± 0.3 Cm
- deaths ([2]; 25 mg/kg dose): 1
- Mean Weight (±SEM) DAY 0 ([2]; 50 mg/kg PO bid + DSS): 25.6 ± 0.5 grams
- % weight change (±SEM) DAY 5 ([2]; 50 mg/kg PO bid + DSS): −9.5 ± 1.3%
- Mean Weight (±SEM) DAY 5 ([2]; 50 mg/kg PO bid + DSS): 23.1 ± 0.5 grams
- % weight change (±SEM) DAY 6 ([2]; 50 mg/kg PO bid + DSS): −8.8 ± 2.2%
- Mean Weight (±SEM) DAY 6 ([2]; 50 mg/kg PO bid + DSS): 23.3 ± 0.8 grams
- % weight change (±SEM) DAY 7 ([2]; 50 mg/kg PO bid + DSS): −9.2 ± 1.9%
- Mean Weight (±SEM) DAY 7 ([2]; 50 mg/kg PO bid + DSS): 23.2 ± 0.7 grams
- % of Normal Length Shortening [2, 4]: 77.9%
- Blood in Feces (%) [2, 4]: 22%
- DAI mean ± SEM [2, 4]: 2.11 ± 0.25
- DAINWT Mean ± SEM (DAI without body weight parameter) [2, 4]: 2.06 ± 0.28
- Mean Colon Length Cm ± SEM [2, 4]: 9.2 ± 0.1 Cm
- deaths ([2]; 50 mg/kg dose): 1
- prevention of colitis produced by 5% Dextran Sulfate Sodium ([2]; PO bid, 5% DSS): significant activity
- protection against weight loss ([2]; any dose (25 and 50 mg/kg PO bid)): No significant protection
- shortening of the colon produced by DSS ([2]; dose levels of 25 and 50 mg/kg PO bid): prevented
